From ChEMBL document CHEMBL1151375, “Potential antitumor agents. XVII. physalin B and 25,26-epidihydrophysalin C from Witheringia coccoloboides” (1981) come the findings set out here.

Format in all cases: functional
Assay [1] can be described thus: Cytotoxicity against mouse 9PS cells. As to conditions: read-out: ED50 (the source's name).
Assay [2] is described as follows: In vivo cytotoxicity against mouse 3PS cells at 300 mg/kg.
A short description of assay [3]: Cytotoxicity against human 9KB cells. The conditions noted are these: read-out: ED50 (the source's name).

≈ marks a conversion by molar mass, not a printed value.

One may read the T/C as the ratio of treated to control. `C[C@]12C(=O)C=CCC1=CC[C@@H]1[C@@H]2CC[C@]2(O)C(=O)O[C@@]3(C)[C@H]4C[C@]5(C)[C@@H](CO[C@@]16O[C@@]32[C@H]5C6=O)C(=O)O4` [PHYSALIN B]: the EC50 came to 0.01 mg/L (≈ 0.0196 µM) in assay [1] and 3.1 mg/L (≈ 6.07 µM) in assay [3]. Moreover, the T/C in assay [2] was 137%.

Take `C[C@@H]1C(=O)O[C@@H]2C[C@@]1(C)[C@@H]1C(=O)[C@]3(O)O[C@]14[C@@]2(C)OC(=O)[C@@]4(O)CC[C@H]1[C@H]3CC=C2CC=CC(=O)[C@@]21C`: the values for the EC50 in assay [1] and in assay [3] were 0.89 mg/L (≈ 1.74 µM) and 12 mg/L (≈ 23.4 µM), respectively.

With `C[C@@]12C[C@H]3OC(=O)[C@@H]1CO[C@]14O[C@@]5([C@H]2C1=O)[C@@]3(C)OC(=O)[C@@]5(O)CC[C@H]1[C@H]4C[C@@H]2O[C@@]23CC=CC(=O)[C@]13C` [5-ALPHA,6-ALPHA-EPOXYPHYSALIN B], the EC50 in assay [1] amounted to 1.6 mg/L (≈ 3.04 µM); in assay [3], 0.43 mg/L (≈ 0.817 µM).
